Consider 11 compounds from PMC8433052 (iScience, 2021).

Read-outs that look alike come from different tables or passages of the source.

Data set [1] concerns the target Recombinant ZIKV NS5 protein (ZIKV RdRp) (Zika virus, UniProt A0A024B7W1). As to the kind of experiment: Primer extension polymerase activity assay. The data set is classed as biochemical. As to conditions: RNA P/T, then ATP, GTP, CTP, UTP 100 μM each, 30°C 2 h; 3′-dATP 100 μM, HMTU-TP 0.025-1.6 mM. As to the method: To generate RNA primer-template complexes (RNA P/T), 0.5 μM fluorescently labeled RNA primer and 2 μM unlabeled RNA template were mixed in 50 mM NaCl, incubated at 95°C for 10 min, and then slowly cooled down to room temperature. The annealed RNA P/T was stored at -30°C before use in the primer extension assay.
The primer extension assay was performed according to a previous report ([Lu et al., 2017]). For analysis of the competitive inhibition ability of HMTU-TP, 200 nM of recombinant ZIKV NS5 (Sino Biological) and 50 nM RNA P/T were incubated 30°C for 15 min in reaction buffer [10 mM Tris-HCl (pH 7.5), 10 mM DTT, 5 mM MgCl2, 5% glycerol, 0.05% Triton-X 100, and 0.02 U/μL RNasein (Promega)], and then ATP analogs [500 μM ATP (Thermo Fischer Scientific), 100 μM 3’-dATP (TriLink), or serially diluted HMTU-TP (0.025, 0.1, 0.4 or 1.6 mM)] were added and incubated at 30°C for 10 min. Primer extension reactions were initiated by the addition of ATP, GTP, CTP and UTP (100 μM each). The reactions were performed 30°C for 2 h and stopped by the addition of quenching buffer (7M Urea, 1X TBE buffer, and 50 mM EDTA). The quenched samples were denatured at 95°C for 5 min, and the primer extension products were separated on a 15% denaturing polyacrylamide gel (Invitrogen). […] The band intensities were analyzed by ImageQuant TL version 8.2.0 (Cytiva).

The next data set deals with MRC5 cells. Nature of the data set: Cytotoxicity against MRC5 cells. The data set is classed as cell-based, Human. As to conditions: for CC50: rescreening (Table 3), read-out: CC50. On the procedure:
(§1) The MTT (3-[4,5-dimethyl-2-thiazolyl]-2,5-diphenyl-2H-tetrazolium bromide) and resazurin reduction assays were carried out as previously described ([Nobori et al., 2018]; [Sanaki et al., 2019]). These were performed to calculate cell viability following viral induced CPE or cytotoxicity. Assay conditions for flaviviruses are as described in Table 2.

Another data set relates to SARS-CoV-2. As to the kind of experiment: qRT-PCR analysis of SARS-CoV-2 in Caco-2 cells (rescreening, supernatant viral RNA). The data set is classed as cell-based. As to conditions: qRT-PCR analysis using Caco-2 cells, MOI 0.1, 48 h.
For a further data set, the system named is HCoV-OC43. As to the kind of experiment: Resazurin reduction assay, HCoV-OC43-infected MRC5 cells. (In general: Alamar Blue is a resazurin reagent that responds to reducing activity.)
Another data set has as its system HCoV-229E. Nature of the data set: Resazurin reduction assay, HCoV-229E-infected MRC5 cells.
The test system of a further data set is rats. Also noted: method as in Lim et al., 2015; Yin et al., 2009. As to conditions: dosed orally, preclinical, ref Lim et al., 2015, Yin et al., 2009; cited from earlier work.
Another data set has as its system dogs. Details: method as in Lim et al., 2015; Yin et al., 2009. As to conditions: dosed orally, preclinical, ref Lim et al., 2015, Yin et al., 2009; cited from earlier work.
For another data set, the system named is DENV1. Nature of the data set: CPE-based antiviral assay (resazurin), DENV1 in BHK-21. Type of data set: cell-based, Dengue virus 1. As to conditions: Dengue virus, DENV1, BHK-21, 120 h, read-out: EC50 against DENV1.
Data set [2] relates to DENV2. Nature of the data set: CPE-based antiviral assay (resazurin), DENV2 in BHK-21. Type of data set: cell-based, Dengue virus 2. As to conditions: Dengue virus, DENV2, BHK-21, 96 h, read-out: EC50 against DENV2.
A further data set has as its system DENV3. As to the kind of experiment: CPE-based antiviral assay (resazurin), DENV3 in BHK-21. As to conditions: Dengue virus, DENV3, BHK-21, 120 h, read-out: EC50 against DENV3. The data set is classed as cell-based, Dengue virus 3.
The subject of the next data set is DENV4. Nature of the data set: CPE-based antiviral assay (resazurin), DENV4 in BHK-21. As to conditions: Dengue virus, DENV4, BHK-21, 120 h, read-out: EC50 against DENV4. The data set is classed as cell-based, Dengue virus 4.
A further data set has as its system ZIKV. As to the kind of experiment: CPE-based antiviral assay (MTT), ZIKV in BHK-21. Type of data set: cell-based. As to conditions: Zika virus, BHK-21, 72 h, read-out: EC50 against ZIKV.
For a further data set, the system named is YFV. Nature of the data set: microbe, parasite or virus in culture. As to conditions: Yellow fever virus, BHK-21, 72 h, read-out: EC50 against YFV. Type of data set: cell-based.
A further data set concerns JEV. Nature of the data set: CPE-based antiviral assay (MTT), JEV in BHK-21. Type of data set: cell-based. As to conditions: Japanese encephalitis virus, BHK-21, 72 h, read-out: EC50 against JEV.
For the next data set, the system named is WNV. Nature of the data set: CPE-based antiviral assay (MTT), WNV in BHK-21. Type of data set: cell-based. As to conditions: West Nile virus, BHK-21, 72 h, read-out: EC50 against WNV.
Data set [3] deals with DENV2. As to the kind of experiment: MTT assay, DENV2-infected BHK-21 cells. Type of data set: cell-based, Dengue virus 2. As to conditions: Dengue virus. On the technique in general: Tetrazolium dyes change colour on reduction, which living cells bring about.
Data set [4] is described as follows: Cytotoxicity assay in BHK-21 cells. As to conditions: hamster. The data set is classed as cell-based, Hamster.
Another data set has as its system BHK-21 cells. As to the kind of experiment: Cytotoxicity assay in BHK-21 cells. Type of data set: cell-based, Hamster. As to conditions: concentrations up to 20 μM.
Data set [5] can be described thus: Cytotoxicity against MRC5 cells. The data set is classed as cell-based, Human. As to conditions: human. On the procedure: as §1
Setting [6] is: read-out: HCoV-OC43 EC50, MRC5 cells, resazurin reduction assay, rescreening of nine tubercidin derivatives.
[7] abbreviates: read-out: HCoV-229E EC50, MRC5 cells, resazurin reduction assay, rescreening of nine tubercidin derivatives.
Where [8] appears, read: rescreening (Table 3), read-out: CC50.
[9] abbreviates: Severe acute respiratory syndrome coronavirus 2.
[10] abbreviates: Betacoronavirus 1, OC43, MRC5, read-out: HCoV-OC43 EC50.
[11] abbreviates: MRC5 cells, resazurin reduction assay.
The mark [12] stands for this setting: Human coronavirus 229E, MRC5, read-out: HCoV-229E EC50.

Chain of Recombinant ZIKV NS5 protein (ZIKV RdRp) (A0A024B7W1 2521-3423): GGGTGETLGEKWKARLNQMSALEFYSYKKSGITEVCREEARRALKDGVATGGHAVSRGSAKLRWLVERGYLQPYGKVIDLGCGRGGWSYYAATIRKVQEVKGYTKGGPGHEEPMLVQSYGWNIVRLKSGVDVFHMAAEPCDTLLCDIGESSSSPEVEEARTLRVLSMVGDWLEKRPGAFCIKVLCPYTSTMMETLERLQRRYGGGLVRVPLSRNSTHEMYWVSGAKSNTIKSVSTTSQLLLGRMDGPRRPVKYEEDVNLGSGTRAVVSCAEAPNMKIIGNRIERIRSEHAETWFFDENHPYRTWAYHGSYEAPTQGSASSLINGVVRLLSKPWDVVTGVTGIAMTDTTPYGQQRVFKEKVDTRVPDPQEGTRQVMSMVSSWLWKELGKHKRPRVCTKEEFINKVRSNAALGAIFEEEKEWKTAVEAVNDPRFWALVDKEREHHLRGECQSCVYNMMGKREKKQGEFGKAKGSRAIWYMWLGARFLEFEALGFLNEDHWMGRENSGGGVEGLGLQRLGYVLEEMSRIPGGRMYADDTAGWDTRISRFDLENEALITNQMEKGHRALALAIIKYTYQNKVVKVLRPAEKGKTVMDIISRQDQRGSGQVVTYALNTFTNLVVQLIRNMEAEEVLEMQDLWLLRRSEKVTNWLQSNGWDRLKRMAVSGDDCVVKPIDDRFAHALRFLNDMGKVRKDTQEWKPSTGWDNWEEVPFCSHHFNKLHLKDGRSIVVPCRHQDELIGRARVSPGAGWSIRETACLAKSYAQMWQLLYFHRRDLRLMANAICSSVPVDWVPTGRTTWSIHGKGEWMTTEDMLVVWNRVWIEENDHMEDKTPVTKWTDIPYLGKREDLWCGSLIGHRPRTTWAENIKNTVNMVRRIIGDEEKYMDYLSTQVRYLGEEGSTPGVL

Take `Nc1ncnc2c1ncn2[C@@H]1O[C@H](COP(=O)(O)OP(=O)(O)OP(=O)(O)O)C[C@H]1O` [3′-dATP, 3'-Deoxyadenosine-5'-Triphosphate, reference compound]: in [1], the “effect on RNA extension by ZIKV RdRp” value is “prevented RNA extension”.
Regarding `Nc1ncnc2c1c([N+](=O)[O-])cn2[C@@H]1O[C@H](CO)[C@@H](O)[C@H]1O` [HUP1078], the CC50 (usually the concentration giving 50% cytotoxicity) in the data set on MRC5 cells turned out to be 330 nM. In the data set on SARS-CoV-2, the EC90 (as a rule, the point of the concentration-response curve where the effect stands at 90%) came to 100 nM. For the same compound, the EC50 (commonly the concentration at which the effect is half-maximal) in the data set on HCoV-OC43 (setting [6]) was more than 10000 nM; in the data set on HCoV-229E (setting [7]) it was 2000 nM.
As for `C#C[C@@]1(O)[C@H](O)[C@@H](CO)O[C@H]1n1ccc2c(N)ncnc21` [NITD-008, 2′-C-ethynyltubercidin], the toxicity result in the data set on rats and with dogs was “significant toxicity” throughout.
Consider `NC(=O)c1nc(F)c[nH]c1=O` [Favipiravir], for which the EC50 in the data set with DENV1 worked out at 17 µM; in the data set with DENV2 [2], 4.4 µM; in the data set with DENV3, 13 µM; in the data set on DENV4, 5.2 µM; with ZIKV it was 40 µM; in the data set on YFV, 57 µM. The values for the EC50 with JEV and in the data set on WNV were 80 µM and more than 100 µM, respectively.
With `Nc1ncnc2c1ccn2[C@@H]1O[C@H](CO)[C@@H](O)[C@H]1O` [HUP1136, tubercidin], the values for the EC50 in the data set on DENV2 [3], in the data set with HCoV-OC43 (setting [10]) and in the data set with HCoV-229E (setting [12]) were less than 125 nM, 110 nM and less than 78 nM, respectively. The values for the cytotoxic concentration (CC50) in [4] and in data set [5] (setting [8]) were 340 nM and 660 nM, respectively. The “cytotoxicity (in words)” value with BHK-21 cells and with MRC5 cells was “high cytotoxicity” in each case. Moreover, the EC90 with SARS-CoV-2 (setting [9]) was 87 nM. For the same compound, in the data set with HCoV-OC43 (setting [11]), the “anti-HCoV-OC43 activity (in words)” value was “strong antiviral activities”. Besides, the “anti-HCoV-229E activity (in words)” value in the data set on HCoV-229E (setting [11]) is “strong antiviral activities”.
Turning to `Nc1c2ccn([C@@H]3O[C@H](CO)[C@@H](O)[C@H]3O)c2nc[n+]1[O-]` [HUP1077, 3-tubercidin N-oxide], the results for the concentration giving a half-maximal response (EC50) in the data set on DENV2 [3], in the data set on HCoV-OC43 (setting [10]) and in the data set with HCoV-229E (setting [12]) were 950 nM, 4300 nM and 4000 nM, respectively. The results for the CC50 in data set [4] and in [5] (setting [8]) were more than 20000 nM and 24000 nM, respectively. Further, in the data set on BHK-21 cells, the “cytotoxicity (in words)” value was “did not exhibit cytotoxicity”. The EC90 with SARS-CoV-2 (setting [9]) turned out to be 3500 nM. Also, the “anti-HCoV-OC43 activity (in words)” value with HCoV-OC43 (setting [11]) is “strong antiviral activities”. In the data set on HCoV-229E (setting [11]), the “anti-HCoV-229E activity (in words)” value is listed as “strong antiviral activities”.
With `N#Cc1cn([C@@H]2O[C@H](CO)[C@@H](O)[C@H]2O)c2ncnc(N)c12` [HUP1109], the CC50 with MRC5 cells stood at 590 nM. This compound also showed an EC90 with SARS-CoV-2 of 200 nM. Also, the EC50 with HCoV-OC43 (setting [6]) is more than 10000 nM; in the data set on HCoV-229E (setting [7]), 2300 nM.
Regarding `Nc1ncnc2c1c(CO)cn2C1OC(COP(=O)(O)OP(=O)(O)OP(=O)(O)O)C(O)C1O` (centres unmarked) [HMTU-TP, HMTU 5′-triphosphate], the “effect on RNA extension by ZIKV RdRp” value in data set [1] is given as “incorporated into RNA template, resulting in chain termination”.
On to `NC(=O)c1ncn([C@@H]2O[C@H](CO)[C@@H](O)[C@H]2O)n1` [Ribavirin], for which the EC50 is 28000 nM in the data set on DENV2 [3]; 62 µM in the data set on DENV1; 19 µM in the data set on DENV2 [2]; 54 µM with DENV3; 86 µM in the data set on DENV4; 31 µM in the data set with ZIKV. For the same compound, the EC50 in the data set on YFV stood at 34 µM; in the data set on JEV, 33 µM; in the data set on WNV, 52 µM. In data set [4], this compound displayed a CC50 of more than 400000 nM.
As to `Nc1ncnc2c1c(/C=N\O)cn2[C@@H]1O[C@H](CO)[C@@H](O)[C@H]1O` [HUP1069, 5-formyltuberucidin oxime], the EC50 with DENV2 [3] was less than 125 nM; in the data set on HCoV-OC43 (setting [10]), 55 nM; in the data set on HCoV-229E (setting [12]), less than 78 nM. In addition, the CC50 was 180 nM in [4] and 740 nM in data set [5] (setting [8]). The “cytotoxicity (in words)” value in the data set on BHK-21 cells and in the data set with MRC5 cells was “high cytotoxicity” throughout. In addition, the 90% effect level in the data set with SARS-CoV-2 (setting [9]) (EC90) was put at 200 nM. The “anti-HCoV-OC43 activity (in words)” value in the data set on HCoV-OC43 (setting [11]) is given as “strong antiviral activities”. For the same compound, the “anti-HCoV-229E activity (in words)” value with HCoV-229E (setting [11]) is listed as “strong antiviral activities”.
Regarding `CCC(CC)COC(=O)[C@H](C)N[P@](=O)(OC[C@H]1O[C@@](C#N)(c2ccc3c(N)ncnn23)[C@H](O)[C@@H]1O)Oc1ccccc1` [Remdesivir, reference compound], the CC50 in data set [5] (mean from three independent experiments (Table 4), read-out: CC50 MRC5, mean) was more than 50000 nM. The EC50 with HCoV-OC43 (Betacoronavirus 1, OC43, MRC5, read-out: HCoV-OC43 EC50, mean) is 229 nM; with HCoV-229E (Human coronavirus 229E, MRC5, read-out: HCoV-229E EC50, mean) it was 71 nM.
